Data reported in patent US20240076347A1, “METHODS FOR PREVENTING FUNGAL INFECTIONS” (Cidara Therapeutics, Inc., priority 2016, published 2024).
In brackets after ≈: the same amount, converted by molar mass. Several values for one entry are separate records, joined by “and”; a condition that tells them apart may be missing. Equal entries are not always repeated. Entries after “also recorded” stand apart in the source; their conditions may differ. Where two headings read alike, the source gives them in different places. Numbered stars: 1 amine (or outer) side, 2 acyl side, 3 side chain; on linkers, the order of the positions; unused ones are H or OH. Bridge positions count the residues as written; N and C are the ends. Square brackets hold non-standard residues; d marks the D form. Peptide text beside a SMILES is read from it. * marks the point of attachment. pTerphenylCO(4''-OnC5H11) = CCCCCOc1ccc(-c2ccc(-c3ccc(C(=O)*)cc3)cc2)cc1; Orn(4R-OH,5R-OH) = O=C([C@H](C[C@@H](O)[C@@H](O)N[*:3])N[*:1])[*:2]; hTyr(3S-OH,4S-OH) = N[C@H](C(=O)O)[C@H](O)[C@@H](O)c1ccc(O)cc1; Pro(3S-OH,4S-Me) = C[C@H]1CN[C@H](C(=O)O)[C@H]1O; Hyp = O=C(O)[C@@H]1C[C@@H](O)CN1

How the values were obtained:
C. albicans = assay: In vitro susceptibility testing (CLSI M27-A3); format: cell-based; conditions: Candida albicans, 24 h
Procedure: (§1) Strains. Ten clinical Candida strains were used for the in vivo treatment studies, including four C. albicans, three C. glabrata, and three C. parapsilosis strains (Table 18). This group was selected to encompass phenotypic variability in susceptibility to triazoles and echinocandins and based on similar fitness in the animal model as defined by the amount of growth in control animals over 24 h. The organisms were maintained, grown, and quantified on Sabouraud's dextrose agar (SDA) plates.
(§2) In vitro susceptibility testing. All isolates were tested in accordance with the standards in CLSI document M27-A3. The MICs were determined visually after 24 h of incubation as the lowest concentration of drug that causes a significant diminution (≥50%) of growth compared to controls. MICs were determined on three separate occasions in duplicate.

C. glabrata = assay: In vitro susceptibility testing (CLSI M27-A3); format: cell-based, Candida glabrata; conditions: Nakaseomyces glabratus, 24 h
Procedure: as §1, §2

C. parapsilosis = assay: In vitro susceptibility testing (CLSI M27-A3); format: cell-based, Candida parapsilosis; conditions: Lodderomyces parapsilosis, 24 h
Procedure: as §1, §2

A. fumigatus AF293 = assay: Pulmonary aspergillosis in neutropenic ICR mice (Examples 14, 15), prophylaxis, survival; format: in vivo, Aspergillus fumigatus
Procedure: Pulmonary aspergillosis: ICR mice (10/grp) were made neutropenic by cyclophosphamide on Day −4 (150 mg/kg), and CPM/cortisone on Day −1 (150/175 mg/kg). Intranasal infection with A. fumigatus AF293 (10^5 CFU/mouse) on Day 0. Prophylaxis CD101 as a single dose (IP; 5, 10, 20 mg/kg) or posaconazole (PO; 2 and 10 mg/kg) 1 day prior to infection. Survival monitored for 10 days.
Pulmonary aspergillosis: ICR mice (10/grp) were made neutropenic by cyclophosphamide on Day −4 (150 mg/kg), and cyclophosphamide/cortisone was given on Day −1 (150/175 mg/kg). Intranasal challenge with A. fumigatus AF293 (10^5 CFU/mouse) was initiated on Day 0 and prophylaxis with CD101 as a single dose (IP; 5, 10, 20 mg/kg) or posaconazole (PO; 2 and 10 mg/kg) was started 1 day prior to infection. Survival was monitored for 10 days.

[1] = test system: Aspergillus fumigatus strain AF293; assay: Murine model of pulmonary aspergillosis (Example 16), survival and lung burden; format: in vivo; conditions: for Group Geometric mean / Log10 Group Geometric mean / Log10 reduction from vehicle control: terminal lung burden
Procedure: Animal strain and housing. Mice used in these studies were supplied by Charles River (Margate UK) and were specific pathogen free. The strain of mice used was ICR (also known as CD1 Mice) which is a well characterized outbred murine strain. Male mice were 11-15 g on receipt and allowed to acclimatize for at least 7 days.
Immunosuppression. Mice were immunosuppressed on Day −4 with 150 mg/kg cyclophosphamide administered intraperitoneally (IP), and on Day −1 with 150 mg/kg cyclophosphamide IP and 175 mg/kg cortisone acetate administered subcutaneously (SC). To prevent bacterial infection due to the immunosuppression mice were given once daily 50 mg/kg ceftazidime.
Preparation of Organism and Infection. A. fumigatus strain AF293 inoculum was prepared from spore cultures grown on Sabouraud Dextrose agar (SAB) containing 50 μg/mL chloramphenicol (SABC) in vented tissue culture flasks. Following incubation for 7-10 days at 30° C., spore cultures were washed in sterile phosphate buffered saline (PBS) containing 0.05% Tween 80. Spore count was determined using a haemocytometer and spores were diluted in PBS to ˜6.9×10^6 CFU/mL. Inoculum concentration was confirmed by quantitative culture onto SABC agar.
Neutropenic mice lungs were infected with 0.04 mL (0.02 mL/nare) of ˜4.17×10^6 CFU/mL (˜1.67×10^5 CFU/mouse) of A. fumigatus AF293 by intranasal (IN) instillation under temporary 2.5% isoflurane induced anesthesia.
Preparation of Test Articles. Micafungin (Mycamine, Astellas) was provided as a 50 mg vial (Lot 02323002, expiry 08/2017) and was prepared as per manufacturer's instructions by adding 5 mL saline for injection (SFI) directly into the vial to make up a 10 mg/mL stock solution. This solution was then diluted further in SFI to a working concentration of 0.5 mg/mL. […] It was prepared fresh once and stored at 4° C. until required.
Posaconazole (Noxafil 40 mg/mL oral suspension, Merck Sharp & Dohme Limited) was provided as a 40 mg/mL oral suspension (Lot N00801, expiry 04/2019). This suspension was then diluted further in water for infection (WFI) to a working concentration of 0.2 and 1 mg/mL. The suspension was administered orally (PO) at 10 mL/kg for 2 and 10 mg/kg doses respectively, was prepared fresh once and stored at 4° C. until required.
Test article CD101 stock was prepared at 6 mg/mL in 10% DMSO/1% Tween 20 diluent. A clear non particulate solution was obtained following gentle mixing. […] All doses were administered IP at 10 mL/kg. The study doses were kept at 4° C. until required.
Treatment. For this study, treatments were initiated on Day 1 pre infection according to treatment groups outlined in Table 22. A total of 36 mice (6/treatment group) were used in the study.
Endpoints. The primary endpoint for this study was survival within agreed ethical limits (>20% weight loss, severe hypothermia <34° C., inability to reach food or drink, severe hunching). Mice were monitored by daily weight measurements with observations as frequently as clinical condition required.
Mice presenting with severe clinical deterioration were humanely euthanized using an overdose of pentobarbitone administered by IP injection following clinical assessment and the time of death was recorded. Animal carcasses were stored at −20° C. before quantitative assessment of burden.
Ten days post infection all surviving animals were weighed and had their clinical condition assessed prior to being euthanized. Final survival numbers were recorded and analysed as described below and carcasses frozen at −20° C. prior to further processing.
Lung burden. A secondary endpoint for the study was terminal lung tissue burden. Immediately following confirmation of death, carcasses were frozen at −20° C. prior to tissue dissection and processing. The frozen carcasses were thawed at room temperature, the lungs removed and placed into pre-weighed bead-beating tubes containing 2 mL of PBS and subjected to mechanical disruption. […]

[2] = test system: A. fumigatus (ATCC 13073); assay: Disseminated infection of immune competent DBA/2 mice, prophylaxis, survival; format: in vivo, Aspergillus fumigatus; conditions: 3 mg/kg IP 1 hour after infection
Procedure: (§3) A. fumigatus (ATCC 13073) growth was taken from 96 hour potato dextrose agar (PDA) and re-suspended in 0.1% Tween 20. The culture was resuspended in 1 mL cold PBS (>1.0×10^8 CFU/mL, OD620 2.3-2.8). The culture was then diluted in PBS to final cellular densities of 1.0×10^7 CFU/mL. The actual colony counts were determined by plating dilutions on PDA plates to confirm inoculation concentration. The actual inoculum count was 1.30×10^7 CFU/mL.
Groups of 6 immune competent female DBA/2 mice weighing 18±2 g were used. On Day 0, animals were inoculated (0.1 mL/mouse) by intravenous (IV) injection into the tail vein with A. fumigatus (ATCC 13073), 1.30×10^6 CFU per mouse. CD101 at 3, 10 and 30 mg/kg as prophylaxis was administered subcutaneously (SC) once starting 5, 3 or 1 day before inoculation. In addition, CD101 at 3 mg/kg SC and the reference, amphotericin B, at 3 mg/kg by intraperitoneal (IP) injection were administered one hour after infection (See Table 2).
(§4) A 50 percent or more (≥50%) increase in the survival rate compared to the vehicle control group indicates significant anti-infective activity. The health observations including body weight, hunched posture, ruffled fur, immobility and hypothermia were recorded daily for 14 days.

Candida auris = assay: Murine model of disseminated candidiasis (immunosuppressed CD-1 mice), treatment; format: in vivo; conditions: 0.3 mg/kg IP, 2 doses; Day 14
Procedure: Female 6-8 week old CD-1 mice were immunosuppressed with cyclophosphamide (200 mg/kg) 3 days prior to infection and 150 mg/kg 1 day post-infection. On the day of infection, mice were inoculated with 3×10^7 C. auris blastospores via the lateral tail vein. Mice were randomized into 5 groups (n=5 for colony forming units (CFU) and n=10 for survival): CD101 20 mg/kg administered by intraperitoneal (IP) injection, fluconazole 20 mg/kg administered per os (PO), amphotericin B 0.3 mg/kg IP, and a vehicle control. Treatments were administered 2 hours post-infection (Day 1) and again on Day 4 of the study for a total of 2 doses. Mice were monitored daily and a survival curve was generated. CFU groups were sacrificed on Day 8 of the study. One kidney was removed from each mouse, homogenized, plated on potato dextrose agar (PDA), and incubated at 35° C. for 2 days to determine CFU. The remaining survival mice were monitored until the end of the study (Day 14).

[3] = test system: A. fumigatus (ATCC 13073); assay: Disseminated infection of neutropenic ICR mice, prophylaxis, survival; format: in vivo, Aspergillus fumigatus; conditions: 3 mg/kg IP 1 hr after infection
Procedure: as §3, with “Inoculum Preparation. A.” for “A.”, “hr” for “hour”, “2.0×10^5” for “1.0×10^7”, “1.85×10^5” for “1.30×10^7”
A. fumigatus (ATCC 13073) disseminated infection (IV). Groups of 6 female ICR mice weighing 22±2 g were used. Animals were immunosuppressed by three intraperitoneal (IP) injections of cyclophosphamide (the first at 6 mg/mouse 3 days before inoculation, the second and third at 2 mg/mouse on Day 1 then Day 4 after inoculation). On Day 0, animals were inoculated (0.1 mL/mouse) by intravenous (IV) injection into the tail vein with A. fumigatus (ATCC 13073), 1.85×10^4 CFU per mouse. CD101 at 5, 10 and 20 mg/kg as prophylaxis was administered subcutaneously (SC) once starting 5, 3 or 1 day before inoculation. […]
as §4, with “days. Animals found moribund were to be humanely sacrificed with CO2 asphyxiation in the study.” for “days.”

CCCCCOc1ccc(-c2ccc(-c3ccc(C(=O)N[C@H]4C[C@@H](O)[C@@H](O)NC(=O)[C@@H]5[C@@H](O)[C@@H](C)CN5C(=O)[C@H]([C@@H](C)O)NC(=O)[C@H]([C@H](O)[C@@H](O)c5ccc(O)cc5)NC(=O)[C@@H]5C[C@@H](O)CN5C(=O)[C@H]([C@@H](C)O)NC4=O)cc3)cc2)cc1 [Anidulafungin, anidulafungin, reference compound] ({pTerphenylCO(4''-OnC5H11)}-[Orn(4R-OH,5R-OH)]T[Hyp][hTyr(3S-OH,4S-OH)]T[Pro(3S-OH,4S-Me)]; lactam 1-C)
MIC (C. albicans; strain 98-17): 0.03 µg/mL (≈ 0.0263 µM)
MIC (C. albicans; strain 98-210): 0.015 µg/mL (≈ 0.0132 µM)
MIC (C. albicans; strain 580): 0.015 µg/mL (≈ 0.0132 µM)
MIC (C. albicans; strain K-1): 0.015 µg/mL (≈ 0.0132 µM)
MIC (C. glabrata; strain 5592, read-out: MIC): 0.06 µg/mL (≈ 0.0526 µM)
MIC (C. glabrata; strain 10956 (FKS2_HS1_F659V)): 1 µg/mL (≈ 0.877 µM)
MIC (C. glabrata; strain 35315, read-out: MIC): 0.25 µg/mL (≈ 0.219 µM)
MIC (C. parapsilosis; strain 20423.072): 1 µg/mL (≈ 0.877 µM)
MIC (C. parapsilosis; strain 20477.048): 2 µg/mL (≈ 1.75 µM)
MIC (C. parapsilosis; strain 20519.069): 4 µg/mL (≈ 3.51 µM)

CC[C@@H]([C@H](C)O)n1ncn(-c2ccc(N3CCN(c4ccc(OC[C@@H]5CO[C@@](Cn6cncn6)(c6ccc(F)cc6F)C5)cc4)CC3)cc2)c1=O [Posaconazole, posaconazole]
survival rate (A. fumigatus AF293; 2 mg/kg PO one day prior to infection, 10 days): no survivors
survival rate (A. fumigatus AF293; 10 mg/kg PO one day prior to infection, vs control): statistically-significant increase in survival rate relative to control
Mean Survival ([1]; 2 mg/kg PO once, Day −1): 77.5 h
Median Survival ([1]; 2 mg/kg PO once, Day −1): 69.0 h
survival time post infection, range ([1]; 2 mg/kg PO once, Day −1): 69 to 114 h
survival vs vehicle (conclusion) ([1]; 2 mg/kg once one day pre-infection): did not show any improvement in survival
Mean Survival ([1]; 10 mg/kg PO once, Day −1): 212 h and 211.5 h
Median Survival ([1]; 10 mg/kg PO once, Day −1): could not be estimated; also recorded: cannot estimate
survival time post infection, range ([1]; 10 mg/kg PO once, Day −1): 69 to 240 h
mice that survived to the end of the study ([1]; 10 mg/kg PO once, Day −1, 6 mice per group, 10 days): 5 mice
mice surviving to the end of the study ([1]; 10 mg/kg once 1 day pre-infection): > 80%
Group Geometric mean ([1]; 2 mg/kg PO Day −1): 1.14 × 10^4 CFU/g
Log10 Group Geometric mean ([1]; 2 mg/kg PO Day −1): 4.06 CFU/g
Log10 reduction from vehicle control ([1]; 2 mg/kg PO Day −1): 0.11 CFU/g
Group Geometric mean ([1]; 10 mg/kg PO Day −1): 2.75 × 10^3 CFU/g
Log10 Group Geometric mean ([1]; 10 mg/kg PO Day −1): 3.44 CFU/g
Log10 reduction from vehicle control ([1]; 10 mg/kg PO Day −1): 0.73 CFU/g

C[C@@H]1[C@H](O)[C@@H](C)/C=C/C=C/C=C/C=C/C=C/C=C/C=C/[C@H](O[C@@H]2O[C@H](C)[C@@H](O)[C@H](N)[C@@H]2O)C[C@@H]2O[C@](O)(C[C@@H](O)C[C@@H](O)[C@H](O)CC[C@@H](O)C[C@@H](O)CC(=O)O[C@H]1C)C[C@H](O)[C@H]2C(=O)O [amphotericin B, reference compound]
14-day survival [2]: significant increase in the 14-day survival
percent survival at the end of the study (Candida auris): 30%
14-day survival [3]: significant increase in the 14-day survival
